According to patent publication US20260152498A1, “4,5,6,7-TETRAHYDRO-1H-PYRAZOLO[4,3-c]PYRIDINE COMPOUNDS AND DERIVATIVES AS USP1 INHIBITORS” (EXELIXIS, INC., priority 2022, published 2026):

Assays:
USP1-UAF1 complex [1] = target: T1, USP1-UAF1 complex (Homo sapiens, UniProt O94782); details: 1.2 µM
Procedure: (§1) Biochemical Assay: The compounds were evaluated for their potential to inhibit USP1-UAF1 complex (Boston Biochem, Catalog: E568-050) using a fluorescence-based assay. The final concentrations of USP1-UAF1 complex protein and substrate Ubiquitin-Rhodamine-110 (R&D systems, Catalog U-555-050) used in the assay were 0.45 and 150 nM respectively. 50 mM HEPES pH. 7.5, 100 mM NaCl, 0.5 mM EDTA, 1 mM TCEP, 10% BSA, 0.01% Tween 20 buffer was used in the assay. The total assay volume was 20 μL. […] The final DMSO concentration in the assay was 1%. The compounds were pre-incubated with USP1-UAF1 complex at 25° C. for 15 min. After preincubation, required concentration of substrate was added and incubated at 25° C. for 60 min. Fluorescence at Excitation: 485 nm, Emission: 535 nm was measured in Victor-5 from Perkin Elmer.
(§2) To determine IC50 values, dose response curves were generated by plotting percentage inhibition as a function of inhibitor concentration and the data was fitted to sigmoidal non-linear regression equation (variable slope) using Graph Pad prism software V8.
(§3) The compounds were screened by the above-mentioned assay procedure.

USP1-UAF1 complex [2] = target: T1, USP1-UAF1 complex; test: biochemical
Procedure: as §1, §2, §3

T1 sequence (O94782 whole entry): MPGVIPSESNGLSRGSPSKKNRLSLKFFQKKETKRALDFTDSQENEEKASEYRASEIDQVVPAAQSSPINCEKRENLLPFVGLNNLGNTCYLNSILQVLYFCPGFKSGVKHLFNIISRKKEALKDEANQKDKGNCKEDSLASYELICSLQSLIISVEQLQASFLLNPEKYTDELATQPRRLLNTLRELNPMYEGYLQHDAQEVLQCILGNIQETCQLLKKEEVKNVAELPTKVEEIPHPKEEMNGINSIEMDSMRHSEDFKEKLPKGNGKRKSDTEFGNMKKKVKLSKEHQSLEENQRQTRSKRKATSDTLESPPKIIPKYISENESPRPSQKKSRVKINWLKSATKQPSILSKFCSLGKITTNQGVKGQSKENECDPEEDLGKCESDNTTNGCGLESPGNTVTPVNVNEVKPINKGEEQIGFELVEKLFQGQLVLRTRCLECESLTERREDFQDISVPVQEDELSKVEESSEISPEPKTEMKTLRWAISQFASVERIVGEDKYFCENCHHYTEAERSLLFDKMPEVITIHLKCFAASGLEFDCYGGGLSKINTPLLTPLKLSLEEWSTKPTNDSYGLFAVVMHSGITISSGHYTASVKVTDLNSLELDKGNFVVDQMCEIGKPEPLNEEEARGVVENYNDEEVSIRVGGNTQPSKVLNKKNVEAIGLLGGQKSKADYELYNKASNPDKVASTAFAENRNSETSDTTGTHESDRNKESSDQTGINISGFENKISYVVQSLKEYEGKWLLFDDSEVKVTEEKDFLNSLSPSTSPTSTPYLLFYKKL
T1 sequence (Q8TAF3 whole entry partner): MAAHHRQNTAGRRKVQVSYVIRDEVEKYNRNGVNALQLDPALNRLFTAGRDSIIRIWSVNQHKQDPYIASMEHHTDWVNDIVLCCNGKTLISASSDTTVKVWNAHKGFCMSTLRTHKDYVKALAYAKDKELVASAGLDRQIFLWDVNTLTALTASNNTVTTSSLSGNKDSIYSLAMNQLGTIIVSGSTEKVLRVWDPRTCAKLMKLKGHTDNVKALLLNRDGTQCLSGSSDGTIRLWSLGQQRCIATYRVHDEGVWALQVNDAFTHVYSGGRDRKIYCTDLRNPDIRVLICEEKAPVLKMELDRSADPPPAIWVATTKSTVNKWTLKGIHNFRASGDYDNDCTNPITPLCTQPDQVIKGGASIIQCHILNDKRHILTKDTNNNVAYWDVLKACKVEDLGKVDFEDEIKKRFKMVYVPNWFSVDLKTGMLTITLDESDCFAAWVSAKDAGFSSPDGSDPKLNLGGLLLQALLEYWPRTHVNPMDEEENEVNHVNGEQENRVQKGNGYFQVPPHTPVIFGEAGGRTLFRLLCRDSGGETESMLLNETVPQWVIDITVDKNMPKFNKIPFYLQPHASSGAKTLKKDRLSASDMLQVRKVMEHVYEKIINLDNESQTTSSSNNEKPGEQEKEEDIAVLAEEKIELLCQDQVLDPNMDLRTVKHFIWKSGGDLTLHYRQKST

| SMILES | inhibition (USP1-UAF1 complex [1]) [%] | IC50 (USP1-UAF1 complex [2]) [nM] |
| --- | --- | --- |
| CCn1nc(-c2c(OC)ncnc2C2CC2)c2c1CCN(c1ccc(-c3nc(C(F)(F)F)cn3C)nc1)C2 [Compound 25, 3-(4-cyclopropyl-6-methoxypyrimidin-5-yl)-1-ethyl-5-(6-(1-methyl-4-(trifluoromethyl)-1H-imidazol-2-yl)pyridin-3-yl)-4,5,6,7-tetrahydro-1H-pyrazolo[4,3-c]pyridine] | 92 | > 100 |
| COc1ncnc(C2CC2)c1-c1nn(C)c2c1CN(c1ncc(-c3nc(C(F)(F)F)cn3C)cn1)CC2 [Compound 59, 3-(4-cyclopropyl-6-methoxypyrimidin-5-yl)-1-methyl-5-(5-(1-methyl-4-(trifluoromethyl)-1H-imidazol-2-yl)pyrimidin-2-yl)-4,5,6,7-tetrahydro-1H-pyrazolo[4,3-c]pyridine] | 95 | 50 to 100 |
| COc1ncnc(C2CC2)c1-c1nn(C)c2c1CN(c1ccc(-n3nc(C(F)(F)F)cc3OC)cc1)CC2 [Compound 19, 3-(4-cyclopropyl-6-methoxypyrimidin-5-yl)-5-(4-(5-methoxy-3-(trifluoromethyl)-1H-pyrazol-1-yl)phenyl)-1-methyl-4,5,6,7-tetrahydro-1H-pyrazolo[4,3-c]pyridine] | 99 | < 50 |
| Cc1cnn(C(C)C)c1-c1nn(C)c2c1CN(c1ccc(-c3nc(C(F)(F)F)cn3C)cc1)CC2 [Compound 61, 3-(1-isopropyl-4-methyl-1H-pyrazol-5-yl)-1-methyl-5-(4-(1-methyl-4-(trifluoromethyl)-1H-imidazol-2-yl)phenyl)-4,5,6,7-tetrahydro-1H-pyrazolo[4,3-c]pyridine] | 98 | < 50 |
| COc1ncnc(C2CC2)c1-c1nn(C)c2c1CN(c1ccc(-c3nc(C(F)(F)F)cn3C)cc1)CC2C (centres unmarked) [Compound 38, 3-(4-cyclopropyl-6-methoxypyrimidin-5-yl)-1,7-dimethyl-5-(4-(1-methyl-4-(trifluoromethyl)-1H-imidazol-2-yl)phenyl)-4,5,6,7-tetrahydro-1H-pyrazolo[4,3-c]pyridine] | 99 | < 50 |
| COc1ncnc(C2CC2)c1-c1nn(C)c2c1CN(c1ccc(-c3nc(C(F)(F)F)cn3C3CC3)cc1)CC2 [Compound 7, 5-(4-(1-cyclopropyl-4-(trifluoromethyl)-1H-imidazol-2-yl)phenyl)-3-(4-cyclopropyl-6-methoxypyrimidin-5-yl)-1-methyl-4,5,6,7-tetrahydro-1H-pyrazolo[4,3-c]pyridine] | 100 | < 50 |
| COc1ncnc(C2CC2)c1-c1nn(C)c2c1CN(c1ccc(-c3nc(C(F)(F)F)cn3C)cc1)CC2 [Compound 1, 3-(4-cyclopropyl-6-methoxypyrimidin-5-yl)-1-methyl-5-(4-(1-methyl-4-(trifluoromethyl)-1H-imidazol-2-yl)phenyl)-4,5,6,7-tetrahydro-1H-pyrazolo[4,3-c]pyridine] | 98 | 50 to 100 |
| COc1ncnc(C2CC2)c1-c1nn(C)c2c1CN(c1ccc(-c3nc(C(F)(F)F)cn3C3CCC3)cn1)CC2 [Compound 16, 5-(5-(1-cyclobutyl-4-(trifluoromethyl)-1H-imidazol-2-yl)pyridin-2-yl)-3-(4-cyclopropyl-6-methoxypyrimidin-5-yl)-1-methyl-4,5,6,7-tetrahydro-1H-pyrazolo[4,3-c]pyridine] | 99 | < 50 |
| COc1ncnc(C2CC2)c1-c1nn(C)c2c1CN(c1ccc(-c3nc(C(F)(F)F)cn3C)c(Cl)c1)CC2 [Compound 45, 5-(3-chloro-4-(1-methyl-4-(trifluoromethyl)-1H-imidazol-2-yl)phenyl)-3-(4-cyclopropyl-6-methoxypyrimidin-5-yl)-1-methyl-4,5,6,7-tetrahydro-1H-pyrazolo[4,3-c]pyridine] | 98 | < 50 |
| COc1ncnc(C2CC2)c1-c1nn(C)c2c1CN(c1ccc(-c3nc(C(F)(F)F)cn3C)nc1)CC2(C)C [Compound 42, 3-(4-cyclopropyl-6-methoxypyrimidin-5-yl)-1,7,7-trimethyl-5-(6-(1-methyl-4-(trifluoromethyl)-1H-imidazol-2-yl)pyridin-3-yl)-4,5,6,7-tetrahydro-1H-pyrazolo[4,3-c]pyridine] | 96 | 50 to 100 |
| COc1ncnc(C2CC2)c1-c1nn(C)c2c1CN(c1ccc(-c3nc(C(F)(F)F)cn3C)cn1)CC2 [Compound 13, 3-(4-cyclopropyl-6-methoxypyrimidin-5-yl)-1-methyl-5-(5-(1-methyl-4-(trifluoromethyl)-1H-imidazol-2-yl)pyridin-2-yl)-4,5,6,7-tetrahydro-1H-pyrazolo[4,3-c]pyridine] | 98 | < 50 |
| COc1ncnc(C2CC2)c1-c1nn(C2CC2)c2c1CN(c1ccc(-c3nc(C(F)(F)F)cn3C)nc1)CC2 [Compound 31, 1-cyclopropyl-3-(4-cyclopropyl-6-methoxypyrimidin-5-yl)-5-(6-(1-methyl-4-(trifluoromethyl)-1H-imidazol-2-yl)pyridin-3-yl)-4,5,6,7-tetrahydro-1H-pyrazolo[4,3-c]pyridine] | 86 | > 100 |
| COc1ncnc(C2CC2)c1-c1nn(C)c2c1CN(c1ccc(-c3nc(C(F)(F)F)cn3C)cn1)CC2(C)C [Compound 43, 3-(4-cyclopropyl-6-methoxypyrimidin-5-yl)-1,7,7-trimethyl-5-(5-(1-methyl-4-(trifluoromethyl)-1H-imidazol-2-yl)pyridin-2-yl)-4,5,6,7-tetrahydro-1H-pyrazolo[4,3-c]pyridine] | 98 | 50 to 100 |
